Test results published in patent publication US11026972B2, “Methods for generating macrophages with enhanced cancer phagocytosis” (Georgia State University Research Foundation, Inc., priority 2016, dated 2021).

B1: IFNγ: recombinant murine cytokine, PeproTech (protein, UniProt P01580 23-155, looked up)
Interferon gamma: HGTVIESLESLNNYFNSSGIDVEEKSLFLDIWRNWQKDGDMKILQSQIISFYLRLFEVLKDNQAISNNISVIESHLITTFFSNSKAKKDAFMSIAKFEVNNPQVQRQAFNELIRVVHQLLPESSLRKRKRSRC
B2: IL-1β: recombinant murine cytokine, PeproTech (protein, UniProt P10749 118-269, looked up)
Interleukin-1 beta: VPIRQLHYRLRDEQQKSLVLSDPYELKALHLNGQNINQQVIFSMSFVQGEPSNDKIPVALGLKGKNLYLSCVMKDGTPTLQLESVDPKQYPKKKMEKRFVFNKIEVKSKVEFESAEFPNWYISTSQAEHKPVFLGNNSGQDIIDFTMESVSS

Assays:
[1] = tested on: PEMs; test: Cell signaling inhibitors on LPS/cytokine- or PMA-induced PEM phagocytic activation toward RBCs; assay type: cell-based, mouse; details: for LPS and cytokine-induced phagocytic activation: PEMs treated with LPS and cytokines in the presence of inhibitors
Description: FIGS. 5A-5H include data related to our experiments on the role of Syk in phagocytic activation. […] PEMs were treated with LPS and cytokines in the presence of various inhibitors. After washing, inhibitor-free macrophages were tested for phagocytosis toward RBCs. […] PEMs treated with LPS and activating cytokines, or together with IL-10, were tested for total Syk and phosphorylated Syk (Syk^pY, specific at Y519/520). FIG. 5D describes PMA-induced macrophages phagocytosis toward RBCs. WT and SIRPα^−/− PEMs were treated with PMA (37° C., 30 min) before testing phagocytosis toward RBCs. FIG. 5E is a schematic depiction of PKC-Syk-mediated macrophage phagocytic activation toward self. […] Left: Inhibition of Syk by piceatannol and R406 prevented PMA-induced phagocytic activation. […] Error bars are ±SEM. ***P<0.001 vs. the respective controls. […] LPS-treated WT PEMs were further briefly treated with pervanadate before testing for phagocytosis toward RBCs. Error bars are ±SEM. ***P<0.001 vs. the respective controls. […] Data presented in each panel represent at least three independent experiments with n≥4, if applicable.
Ex vivo macrophage phagocytosis: Mouse spleens were harvested and minced in cold HBSS followed by passing through nylon meshes. The spleen cells in suspensions were collected by centrifugation followed by washing. After lysis of RBC, splenocytes were plated in cell culture dishes in DMEM with 10% FBS and cultured for 2 h followed by removal of non-adherent cells. The adherent cells, ˜70% being macrophages as determined by anti-F4/80 staining, were tested for phagocytosis. For phagocytosis of RBC or other tissue cells, targeted cells were labeled with CFSE prior to addition into the macrophage-containing wells. Macrophages and target cells, at a ratio of 1:5-10 for RBC or 1:1-2 for other cells, were co-incubated for 30 min at 37° C. followed by gently washing. Macrophage phagocytosis of target cells was then analyzed by fluorescence microscopy and/or by FACS. […] Alternatively, the freshly isolated splenocytes in suspension were incubated with CFSE-labeled RBC and other phagocytic targets for 30 min at 37° C. Macrophage phagocytosis was then determined by FACS after labeling macrophages with anti-F4/80. To test phagocytosis of apoptotic cells, B16 cells were irradiated by UV for 150 seconds at 50 J/m^2 strength. Apoptosis was analyzed at 2, 4, 6, 8 and 18 h post UV irradiation by labeling of the cells with anti-phosphatidylserine (PS) antibody (data not shown) or FITC-conjugated annexin V (data not shown). Cells that were confirmed to be apoptotic were trypsinized, labeled with CFSE, and then co-incubated with macrophages for 30 min at 37° C. After gentle washing, phagocytosis was analyzed by fluorescence microscopy and/or FACS. To test phagocytosis of bacteria and the fungal product zymosan, AlexaFluor-conjugated E.coli strain […] (2 μl suspension, ˜2 μg) or zymosan bioparticles (1 μl suspension, ˜2 μg) (both from Invitrogen) were incubated with macrophages for 30 min followed by washing and analyses. Similar procedures were performed to test phagocytosis of macrophages from various sources. To obtain peritoneal macrophages, peritonea of mice were lavaged by sterile PBS followed by centrifugation to collect cells. Cells suspended in DMEM with 10% FBS were then plated in cell culture dishes and incubated for 2 h at 37° C. followed by removal of non-adherent cells. To produce bone marrow-derived macrophages, freshly isolated bone marrow cells were culture in macrophage colony-stimulating factor (MCSF, ˜10 ng/ml)-containing MEM with 10% FBS for five-six days and macrophage differentiation was confirmed by anti-F4/80 staining.

[2] = tested on: splenic macrophages, PEMs and BMDMs; test: Ex vivo macrophage phagocytosis toward RBCs and other self-cells after activation; assay type: cell-based, mouse; details: for ability to induce macrophage phagocytosis toward self: PEM, lack of the CD47-SIRPα-mediated inhibition
Description: FIGS. 3A-3H include data related to our experiments assaying macrophage phagocytosis ex vivo. FIGS. 3A and 3B show macrophage phagocytosis of RBCs. Freshly isolated splenic macrophages (MØ) and peritoneal macrophages (PEM) and in vitro-derived BMDM (bone marrow-derived macrophages) were tested for phagocytosis toward CFSE-labeled Cd47^+ or Cd47^− RBCs. […] FIGS. 3F and 3G illustrate LPS and IL-17-activated PEM phagocytosis toward splenocytes (FIG. 3F), B16, and EL4 (FIG. 3G). Error bars are ±SEM. **P<0.01, ***P<0.001 vs. no treatment controls. […] PEM lavaged without (ctl.) or with Brewer thioglycollate (3%, i.p.) elicitation was tested. Error bars are ±SEM. ***P<0.001 vs. control PEM. Data presented in each panel represent at least three independent experiments with n≥4, if applicable.
FIGS. 4A-4E include data related to our experiments on macrophage phagocytic plasticity. FIG. 4A is a panel of illustrative line graphs showing that IL-10 inhibits macrophage phagocytosis toward “self.” PEMs were treated with LPS and activating cytokines along with various concentrations of IL-10 before testing their ability to phagocytose RBCs. FIG. 4B illustrates the phagocytic plasticity of WT red pulp macrophages. […] Treatments of cultured macrophages with LPS and IL-17 re-elicited their phagocytosis toward RBCs. […] Error bars are ±SEM. ***P<0.001 vs. freshly isolated splenic macrophages. FIG. 4D includes microscopic images of RBC phagocytosis by LPS- and IL-17-treated splenic macrophages. […] WT PEMs treated with LPS or IL-17 were further treated with Cd47^+ RBCs or Cd47-AP (10 min, 37° C.) followed by cell lysis, SIRPα immunoprecipitation, and WB detection of SIRPα phosphorylation (SIRPα^pY) and SHP-1 association. Data presented in each panel represent at least three independent experiments with n≥4, if applicable.
Ex vivo macrophage phagocytosis: Mouse spleens were harvested and minced in cold HBSS followed by passing through nylon meshes. The spleen cells in suspensions were collected by centrifugation followed by washing. After lysis of RBC, splenocytes were plated in cell culture dishes in DMEM with 10% FBS and cultured for 2 h followed by removal of non-adherent cells. The adherent cells, ˜70% being macrophages as determined by anti-F4/80 staining, were tested for phagocytosis. For phagocytosis of RBC or other tissue cells, targeted cells were labeled with CFSE prior to addition into the macrophage-containing wells. Macrophages and target cells, at a ratio of 1:5-10 for RBC or 1:1-2 for other cells, were co-incubated for 30 min at 37° C. followed by gently washing. Macrophage phagocytosis of target cells was then analyzed by fluorescence microscopy and/or by FACS. To better recognize macrophages, macrophages in wells were labeled with an anti-F4/80 or an anti-CD11b antibody. Alternatively, the freshly isolated splenocytes in suspension were incubated with CFSE-labeled RBC and other phagocytic targets for 30 min at 37° C. Macrophage phagocytosis was then determined by FACS after labeling macrophages with anti-F4/80. To test phagocytosis of apoptotic cells, B16 cells were irradiated by UV for 150 seconds at 50 J/m^2 strength. Apoptosis was analyzed at 2, 4, 6, 8 and 18 h post UV irradiation by labeling of the cells with anti-phosphatidylserine (PS) antibody (data not shown) or FITC-conjugated annexin V (data not shown). Cells that were confirmed to be apoptotic were trypsinized, labeled with CFSE, and then co-incubated with macrophages for 30 min at 37° C. After gentle washing, phagocytosis was analyzed by fluorescence microscopy and/or FACS. To test phagocytosis of bacteria and the fungal product zymosan, AlexaFluor-conjugated E.coli strain […] (2 μl suspension, ˜2 μg) or zymosan bioparticles (1 μl suspension, ˜2 μg) (both from Invitrogen) were incubated with macrophages for 30 min followed by washing and analyses. Similar procedures were performed to test phagocytosis of macrophages from various sources. […]

Molecule	LPS and cytokine-induced phagocytic activation [1]	also measured
O=C(O)CN(CCN(CC(=O)O)CC(=O)O)CC(=O)O [EDTA]		macrophage phagocytic activation ([1]; presence of EDTA): hindered macrophage phagocytic activation
COc1cc2ncnc(Nc3ccc(O)cc3)c2cc1OC [JAK3 inhibitor I]	diminished phagocytic activation induced by certain, but not all stimuli	
Cc1ccc(NCCCc2ccccc2)c(N)c1 [JSH-23]	diminished phagocytic activation induced by certain, but not all stimuli	
C/C(O)=C(\C#N)C(=O)Nc1cc(Br)ccc1Br [LFM-13]	diminished phagocytic activation induced by certain, but not all stimuli	
COc1cccc(-c2cc(=O)c3ccccc3o2)c1N [PD98059]	diminished phagocytic activation induced by certain, but not all stimuli	
Cc1ccc(-c2nn(C(C)(C)C)c3ncnc(N)c23)cc1 [PP1]	diminished phagocytic activation induced by certain, but not all stimuli	
CC(C)(C)n1nc(-c2ccc(Cl)cc2)c2c(N)ncnc21 [PP2]	diminished phagocytic activation induced by certain, but not all stimuli	
COc1cc(Nc2ncc(F)c(Nc3ccc4c(n3)NC(=O)C(C)(C)O4)n2)cc(OC)c1OC [R406]		PEM activation ([1]; 400 nM, all stimuli): nearly completely eliminated PEM activation induced by all stimuli; PMA-induced PEM phagocytosis ([1]; Syk inhibition): eliminated the PMA-induced PEM phagocytosis; LPS-induced activation of PEM phagocytosis toward RBC ([1]; dose dependence): dose-dependently inhibited
C[S+]([O-])c1ccc(-c2nc(-c3ccncc3)c(-c3ccc(F)cc3)[nH]2)cc1 (centres unmarked) [SB203580]	diminished phagocytic activation induced by certain, but not all stimuli	
COc1ccc2c(c1)CC[C@@H]1[C@@H]2CC[C@]2(C)[C@@H](NCCCCCCN3C(=O)C=CC3=O)CC[C@@H]12 [U73122]	diminished phagocytic activation induced by certain, but not all stimuli	
JAK inhibitor I	diminished phagocytic activation induced by certain, but not all stimuli	
pervanadate		Cd47-dependent phagocytic recognition ([2]; LPS-treated WT PEMs briefly treated with pervanadate): eliminates Cd47-dependent phagocytic recognition
tumor necrosis factor-alpha [TNFα]		ability to induce macrophage phagocytosis toward self [2]: have the ability to induce macrophage phagocytosis toward self
B1		ability to induce macrophage phagocytosis toward self [2]: not
B2		ability to induce macrophage phagocytosis toward self [2]: have the ability to induce macrophage phagocytosis toward self
